Data: PubChem BioAssay AID2060602 (Molecular Pharmacology Branch, DTP, NCI, 2025)
Where “and” joins values, the source holds several entries; their conditions need not be identical. Equal entries are not always repeated.

Tested on: 648629-189-R-J1-PDC complex spheroids viability
Test: Anticancer human tumor 648629-189-R-J1-PDC patient-derived bladder carcinoma cell line growth inhibition [CLK]
Settings: for viability, T/C: stronger effect = lower value
Excerpt: A high-throughput screen of multi-cell type tumor spheroids was designed to identify active combinations of […] and targeted small molecules. Complex spheroids include a stromal component modeled by human endothelial cells (HUVEC) and fibroblasts modeled by human mesenchymal stem cells (MSCs). The concentration ranges selected for each drug and investigational agent were based upon clinically achievable concentrations if the clinical Cmax of the agent was known.
Compounds. The drugs and investigational agents: cirtuvivint (SM08502; NSC835563), CC-671 (NSC850746), vemurafenib (NSC761431), tapotoclax (NSC804041), sotorasib (NSC818433), adagrasib (NSC831453), MRTX-1133 (NSC836407), BAY2416964 (NSC825713), copanlisib (NSC816437), inavolisib (NSC800729), abemaciclib (NSC768073), osimertinib (NSC779217), entinostat (NSC756642), eltanexor (KPT-8602, NSC794443), venetoclax (NSC766270), ceralasertib (NSC777638), bortezomib (NSC756655), olaparib (NSC753686), talazoparib (NSC767125), alisertib (NSC759677), peposertib (NSC802822), gemcitabine (NSC613327), 5-fluorouracil (NSC19893), SN-38 (NSC673596), oxaliplatin (NSC266046), paclitaxel (NSC125973), and doxorubicin (NSC123127), were obtained from the National Cancer Institute (NCI) Developmental Therapeutics Program Chemical Repository. The FDA-approved anticancer drug set is available from the Developmental Therapeutics Program at https://dtp.cancer.gov/organization/dscb/obtaining/available plates.htm. […] The stock solutions were prepared in dimethyl sulfoxide (DMSO, Sigma-Aldrich, St. Louis, MO, cat. D2650), except for the platinum complexes which were prepared in saline (Quality Biological, Gaithersburg, MD, cat. 114-055-101), at 800-fold the tested concentration and stored at -70 degrees C prior to their use. All drugs and investigational agents were tested over a range starting from a high concentration at or near the clinical Cmax and decreasing in half-log increments. If the clinical Cmax for an agent had not been determined, the highest concentration tested was 10 microM.
Cell Culture. All cells were maintained in an incubator at 37 degrees C and 5% CO2 with 95% humidity. The PDC lines were cultured according to standard operating procedures established by the NCI PDMR. Briefly, all PDCs were thawed and cultured in Matrigel-coated flasks prepared with a working solution of 1X Ham's F-12 nutrient mix, without supplementation (Invitrogen, Waltham, MA, cat. 11765054), 100 U/mL penicillin-streptomycin (Invitrogen, cat. 15140122), and 2.5% Matrigel (Corning Inc., Corning, NY, cat. 354248) for the first three passages. The 947758-054-R-J2-PDC line was cultured in 6B/Colon 1A media, which includes advanced DMEM/F-12 (Thermo Fisher Scientific, cat. 12634028), 10 mM HEPES (Thermo Fisher Scientific, cat. 15630080), 1X GlutaMAX supplement (Thermo Fisher Scientific, cat. 35050061), 0.1 mg/mL primocin (InvivoGen, cat. ant-pm-2), 10% defined fetal bovine serum, heat inactivated (HyClone Laboratories Inc., cat. SH30070.03HI), 1.25 mM N-Acetyl-L-cysteine (Sigma-Aldrich, cat. A9165), 10 mM nicotinamide (Sigma-Aldrich, cat. N0636), 1X B-27 supplement (Thermo Fisher Scientific, cat. 17504044), 1X N-2 supplement (Thermo Fisher Scientific, cat. 17502048), and 10 microM Y-27632 dihydrochloride (Tocris Bioscience, cat. 1254). The 876862-298-R-J1-PDC was cultured in 6E media, which includes all 6B/Colon 1A media components plus 50% L-WRN conditioned media (ATCC, cat. CRL-3276), 50 ng/mL recombinant human EGF recombinant protein (hEGF; Thermo Fisher Scientific, cat. PHG0311), 10 ng/mL recombinant human fibroblast growth factor 10 (hGFG-10; PeproTech, cat. 100-26), 1 ng/mL recombinant human fibroblast growth factor 2 (hFGF-2; PeproTech, cat. 100-18B), and 1 µM prostaglandin E2 (PGE2; Tocris, cat. 2296). The 227483-062-R1-J1-PDC line was cultured in Panc media, containing all 6E components except hFGF-2, with the addition of 500 nM SB-431542 (Selleckchem, cat. S1067) and 10 nM gastrin (Tocris, cat. 3006). […]

[1] = curve of first compound, second compound 0.0316 µM
[2] = curve of first compound, second compound 0.1 µM
[3] = curve of first compound, second compound 0.316 µM
[4] = curve of first compound, second compound 1 µM
[5] = curve of first compound, second compound 3.16 µM
[6] = curve of first compound, second compound 10 µM
[7] = second compound 0.0316 µM, first compound 0.0316 µM
[8] = second compound 0.0316 µM, first compound 0.1 µM
[9] = second compound 0.0316 µM, first compound 0.316 µM
[10] = second compound 0.0316 µM, first compound 1 µM
[11] = second compound 0.0316 µM, first compound 3.16 µM
[12] = second compound 0.0316 µM, first compound 10 µM
[13] = second compound 0.1 µM, first compound 0.0316 µM
[14] = second compound 0.1 µM, first compound 0.1 µM
[15] = second compound 0.1 µM, first compound 0.316 µM
[16] = second compound 0.1 µM, first compound 1 µM
[17] = second compound 0.1 µM, first compound 3.16 µM
[18] = second compound 0.1 µM, first compound 10 µM
[19] = second compound 0.316 µM, first compound 0.0316 µM
[20] = second compound 0.316 µM, first compound 0.1 µM
[21] = second compound 0.316 µM, first compound 0.316 µM
[22] = second compound 0.316 µM, first compound 1 µM
[23] = second compound 0.316 µM, first compound 3.16 µM
[24] = second compound 0.316 µM, first compound 10 µM
[25] = second compound 1 µM, first compound 0.0316 µM
[26] = second compound 1 µM, first compound 0.1 µM
[27] = second compound 1 µM, first compound 0.316 µM
[28] = second compound 1 µM, first compound 1 µM
[29] = second compound 1 µM, first compound 3.16 µM
[30] = second compound 1 µM, first compound 10 µM
[31] = second compound 3.16 µM, first compound 0.0316 µM
[32] = second compound 3.16 µM, first compound 0.1 µM
[33] = second compound 3.16 µM, first compound 0.316 µM
[34] = second compound 3.16 µM, first compound 1 µM
[35] = second compound 3.16 µM, first compound 3.16 µM
[36] = second compound 3.16 µM, first compound 10 µM
[37] = second compound 10 µM, first compound 0.0316 µM
[38] = second compound 10 µM, first compound 0.1 µM
[39] = second compound 10 µM, first compound 0.316 µM
[40] = second compound 10 µM, first compound 1 µM
[41] = second compound 10 µM, first compound 3.16 µM
[42] = second compound 10 µM, first compound 10 µM
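For viability, T/C in this document: drug exposure lasted seven days before viability readout; 100% = DMSO vehicle control wells.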

CC(=O)O[C@H]1C(=O)[C@@]2(C)[C@H]([C@H](OC(=O)c3ccccc3)[C@]3(O)C[C@H](OC(=O)[C@H](O)[C@@H](NC(=O)c4ccccc4)c4ccccc4)C(C)=C1C3(C)C)[C@]1(OC(C)=O)CO[C@@H]1C[C@@H]2O
viability, T/C (compound 0.0316 µM): 10.4% and 11.2%
viability, T/C (compound 0.1 µM): 10.1% and 12.7%
viability, T/C (compound 0.316 µM): 10.1% and 11.7%
viability, T/C (compound 1 µM): 12.9% and 13.5%
viability, T/C (compound 3.16 µM): 10.8% and 10.5%
viability, T/C (compound 10 µM): 13.3% and 15.2%
IC50 (curve of compound): < 31.6 nM

COc1ccc([C@@H](O)c2cc(-c3ncnc4cc(N5CCOCC5)ccc34)c(F)cc2Cl)nn1
viability, T/C (compound 0.0316 µM): 92.5% and 93.4%
viability, T/C (compound 0.1 µM): 94.4% and 108%
viability, T/C (compound 0.316 µM): 94.7% and 89.7%
viability, T/C (compound 1 µM): 75.6% and 85%
viability, T/C (compound 3.16 µM): 74.8% and 70%
viability, T/C (compound 10 µM): 40.1% and 39.5%
IC50 (curve of compound): 7050 nM and 6680 nM

COc1cccc2c1C(=O)c1c(O)c3c(c(O)c1C2=O)CC(O)(C(=O)CO)CC3OC1CC(N)C(O)C(C)O1 (configuration not stated)
viability, T/C (compound 0.0316 µM): 32.3% and 23%
viability, T/C (compound 0.1 µM): 16.2%
viability, T/C (compound 0.316 µM): 7.93% and 6.42%
viability, T/C (compound 1 µM): 0.61% and 0.54%
viability, T/C (compound 3.16 µM): 0.12% and 0.15%
viability, T/C (compound 10 µM): 0.13% and 0.14%
IC50 (curve of compound): < 31.6 nM

C=CC(=O)N1CCN(c2nc(=O)n(-c3c(C)ccnc3C(C)C)c3nc(-c4c(O)cccc4F)c(F)cc23)C(C)C1 (configuration not stated) + CN1CCN(c2cc(C(=O)Nc3cc4cc(-c5cnn(C)c5)ccc4cn3)ccn2)CC1
IC50 [1]: > 10000 nM
IC50 [2]: > 10000 nM
IC50 [3]: 1030 nM
IC50 [4]: < 31.6 nM
IC50 [5]: < 31.6 nM
IC50 [6]: < 31.6 nM
viability, T/C [7]: 109%
viability, T/C [8]: 113%
viability, T/C [9]: 104%
viability, T/C [10]: 115%
viability, T/C [11]: 108%
viability, T/C [12]: 89%
viability, T/C [13]: 89.6%
viability, T/C [14]: 99.5%
viability, T/C [15]: 99.4%
viability, T/C [16]: 114%
viability, T/C [17]: 98.9%
viability, T/C [18]: 102%
viability, T/C [19]: 47.3%
viability, T/C [20]: 55.5%
viability, T/C [21]: 50.5%
viability, T/C [22]: 50.4%
viability, T/C [23]: 38%
viability, T/C [24]: 20.2%
viability, T/C [25]: 0.58%
viability, T/C [26]: 0.57%
viability, T/C [27]: 0.3%
viability, T/C [28]: 0.5%
viability, T/C [29]: 0.34%
viability, T/C [30]: 0.13%
viability, T/C [31]: 0.13%
viability, T/C [32]: 0.17%
viability, T/C [33]: 0.14%
viability, T/C [34]: 0.13%
viability, T/C [35]: 0.11%
viability, T/C [36]: 0.11%
viability, T/C [37]: 0.15%
viability, T/C [38]: 0.19%
viability, T/C [39]: 0.16%
viability, T/C [40]: 0.18%
viability, T/C [41]: 0.22%
viability, T/C [42]: 0.15%

CCCS(=O)(=O)Nc1ccc(F)c(C(=O)c2c[nH]c3ncc(-c4ccc(Cl)cc4)cc23)c1F + CN1CCN(c2cc(C(=O)Nc3cc4cc(-c5cnn(C)c5)ccc4cn3)ccn2)CC1
IC50 [1]: 7050 nM
IC50 [2]: 7250 nM
IC50 [3]: < 31.6 nM
IC50 [4]: < 31.6 nM
IC50 [5]: < 31.6 nM
IC50 [6]: < 31.6 nM
viability, T/C [7]: 115%
viability, T/C [8]: 104%
viability, T/C [9]: 116%
viability, T/C [10]: 110%
viability, T/C [11]: 126%
viability, T/C [12]: 21.8%
viability, T/C [13]: 110%
viability, T/C [14]: 118%
viability, T/C [15]: 105%
viability, T/C [16]: 98.7%
viability, T/C [17]: 104%
viability, T/C [18]: 28.9%
viability, T/C [19]: 37.6%
viability, T/C [20]: 57.9%
viability, T/C [21]: 55.4%
viability, T/C [22]: 46.8%
viability, T/C [23]: 44.1%
viability, T/C [24]: 7.7%
viability, T/C [25]: 0.47%
viability, T/C [26]: 0.46%
viability, T/C [27]: 0.3%
viability, T/C [28]: 0.39%
viability, T/C [29]: 0.22%
viability, T/C [30]: 0.86%
viability, T/C [31]: 0.11%
viability, T/C [32]: 0.67%
viability, T/C [33]: 0.13%
viability, T/C [34]: 0.13%
viability, T/C [35]: 0.14%
viability, T/C [36]: 0.52%
viability, T/C [37]: 0.11%
viability, T/C [38]: 0.13%
viability, T/C [39]: 0.14%
viability, T/C [40]: 0.16%
viability, T/C [41]: 0.15%
viability, T/C [42]: 0.25%

COC1C=CCC(C)C(C)S(=O)(=O)NC(=O)c2ccc3c(c2)N(CC2CCC21)CC1(CCCc2cc(Cl)ccc21)CO3 (configuration not stated) + CN1CCN(c2cc(C(=O)Nc3cc4cc(-c5cnn(C)c5)ccc4cn3)ccn2)CC1
IC50 [1]: 2090 nM
IC50 [2]: 2100 nM
IC50 [3]: < 31.6 nM
IC50 [4]: < 31.6 nM
IC50 [5]: < 31.6 nM
IC50 [6]: < 31.6 nM
viability, T/C [7]: 106%
viability, T/C [8]: 99.9%
viability, T/C [9]: 93.2%
viability, T/C [10]: 82%
viability, T/C [11]: 32.4%
viability, T/C [12]: 3.21%
viability, T/C [13]: 114%
viability, T/C [14]: 94.4%
viability, T/C [15]: 92.4%
viability, T/C [16]: 80.1%
viability, T/C [17]: 33.3%
viability, T/C [18]: 3.02%
viability, T/C [19]: 50.2%
viability, T/C [20]: 46.9%
viability, T/C [21]: 37.9%
viability, T/C [22]: 14.4%
viability, T/C [23]: 4.72%
viability, T/C [24]: 1.78%
viability, T/C [25]: 0.38%
viability, T/C [26]: 0.34%
viability, T/C [27]: 0.42%
viability, T/C [28]: 0.15%
viability, T/C [29]: 0.13%
viability, T/C [30]: 0.08%
viability, T/C [31]: 0.13%
viability, T/C [32]: 0.12%
viability, T/C [33]: 0.16%
viability, T/C [34]: 0.14%
viability, T/C [35]: 0.43%
viability, T/C [36]: 0.12%
viability, T/C [37]: 0.17%
viability, T/C [38]: 0.13%
viability, T/C [39]: 0.2%
viability, T/C [40]: 0.21%
viability, T/C [41]: 0.24%
viability, T/C [42]: 0.51%
